Test results as given in publication PMC9457259 (Proceedings of the National Academy of Sciences of the …, 2022).

Molecular target: human voltage-gated proton channel hHv1 (Homo sapiens, UniProt Q96D96)
Assay: liposome proton flux assay
Type: biochemical

Chain of human voltage-gated proton channel hHv1 (Q96D96 whole entry): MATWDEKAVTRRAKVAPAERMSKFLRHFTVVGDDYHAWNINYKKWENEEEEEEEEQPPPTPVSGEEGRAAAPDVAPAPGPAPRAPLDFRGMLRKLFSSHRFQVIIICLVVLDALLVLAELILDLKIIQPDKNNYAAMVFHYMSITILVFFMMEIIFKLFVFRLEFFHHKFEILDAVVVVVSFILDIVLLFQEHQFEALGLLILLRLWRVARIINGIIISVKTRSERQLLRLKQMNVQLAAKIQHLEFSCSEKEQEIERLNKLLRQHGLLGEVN

Question: How did the IC50 turn out when `CC(C)CCC[C@@H](C)[C@H]1CC[C@H]2[C@@H]3CC=C4C[C@@H](O)CC[C@]4(C)[C@H]3CC[C@]12C` [cholesterol] was run?
Answer: Its IC50 is ~ 10 % (wt/wt, to total membrane lipids).
